Source: ChEMBL document CHEMBL5634109, “Synthesis and mechanism of action of new purine derivatives against triple negative breast cancer” (Eur J Med Chem, 2023)
Active and inactive are the calls of the source. No cut-off for these calls is given here.

Assays:
[1] = target: Cyclin-dependent kinase 7 (Homo sapiens, UniProt P50613); experiment: Inhibition of CDK7 (unknown origin)
[2] = target: Dual specificity protein kinase CLK2 (Homo sapiens, UniProt P49760); experiment: Inhibition of CLK2 (unknown origin)
[3] = target: Dual specificity protein kinase CLK4 (Homo sapiens, UniProt Q9HAZ1); experiment: Inhibition of CLK4 (unknown origin)
[4] = target: Dual specificity protein kinase CLK1 (Homo sapiens, UniProt P49759); experiment: Inhibition of CLK1 (unknown origin)
[5] = target: Casein kinase I isoform epsilon (Homo sapiens, UniProt P49674); experiment: Inhibition of CK1epsilon (unknown origin)
[6] = target: Dual specificity tyrosine-phosphorylation-regulated kinase 1A (Homo sapiens, UniProt Q13627); experiment: Inhibition of DYRK1A (unknown origin)
K562 = experiment: Antiproliferative activity against human K562 cells assessed as reduction in cell viability measured for 48 hrs by MTT assay; type: functional, cell-based; conditions: K562, 48 h
HepG2 = experiment: Antiproliferative activity against human HepG2 cells assessed as reduction in cell viability measured for 48 hrs by MTT assay; type: functional, cell-based; conditions: HepG2, 48 h
HCT-116 = experiment: Antiproliferative activity against human HCT-116 cells assessed as reduction in cell viability measured for 48 hrs by MTT assay; type: functional, cell-based; conditions: HCT-116, 48 h
MCF7 = experiment: Antiproliferative activity against human MCF7 cells assessed as reduction in cell viability measured for 48 hrs by MTT assay; type: functional, cell-based; conditions: MCF7, 48 h
MGC-803 = experiment: Antiproliferative activity against human MGC-803 cells assessed as reduction in cell viability measured for 48 hrs by MTT assay; type: functional, cell-based; conditions: MGC-803, 48 h
A549 = experiment: Antiproliferative activity against human A549 cells assessed as reduction in cell viability measured for 48 hrs by MTT assay; type: functional, cell-based; conditions: A549, 48 h
NCI-H1299 = experiment: Antiproliferative activity against human NCI-H1299 cells assessed as reduction in cell viability measured for 48 hrs by MTT assay; type: functional, cell-based; conditions: NCI-H1299, 48 h
HT-29 = experiment: Antiproliferative activity against human HT-29 cells assessed as reduction in cell viability measured for 48 hrs by MTT assay; type: functional, cell-based; conditions: HT-29, 48 h
PC-3 = experiment: Antiproliferative activity against human PC-3 cells assessed as reduction in cell viability measured for 48 hrs by MTT assay; type: functional, cell-based; conditions: PC-3, 48 h
MDA-MB-231 [7] = experiment: Antiproliferative activity against human MDA-MB-231 cells assessed as reduction in cell viability measured for 48 hrs by MTT assay; type: functional, cell-based; conditions: MDA-MB-231, 48 h
MDA-MB-468 = experiment: Antiproliferative activity against human MDA-MB-468 cells assessed as reduction in cell viability measured for 48 hrs by MTT assay; type: functional, cell-based; conditions: MDA-MB-468, 48 h
[8] = Antiproliferative activity against human HUVEC cells assessed as reduction in cell viability measured for 48 hrs by MTT assay; type: toxicity, cell-based
[9] = Antiproliferative activity against human HEK293 cells assessed as reduction in cell viability measured for 48 hrs by MTT assay; type: toxicity, cell-based
MDA-MB-231 [10] = experiment: Antiproliferative activity against human MDA-MB-231 cells assessed as reduction in viability at 4 uM incubated for 7.5 hrs by MTT assay; type: functional
MDA-MB-231 [11] = experiment: Antiproliferative activity against human MDA-MB-231 cells assessed as reduction in viability at 10 uM incubated for 7.5 hrs by MTT assay; type: functional
MDA-MB-231 [12] = experiment: Induction of apoptosis in human MDA-MB-231 cells assessed as formation of apoptotic bodies at 4 uM incubated for 6 hrs; type: functional, cell-based
MDA-MB-231 [13] = experiment: Induction of apoptosis in human MDA-MB-231 cells assessed as change in cell shape at 4 uM incubated for 12 to 24 hrs; type: functional, cell-based; conditions: time 12-24 hrs
MDA-MB-231 [14] = experiment: Induction of apoptosis in human MDA-MB-231 cells assessed as increase in number of apoptotic bodies at 4 uM incubated for 48 hrs; type: functional, cell-based
MDA-MB-231 [15] = experiment: Induction of apoptosis in human MDA-MB-231 cells assessed as increase in number of cell debris at 4 uM incubated for 48 hrs; type: functional, cell-based
MDA-MB-231 [16] = experiment: Induction of apoptosis in human MDA-MB-231 cells assessed as apoptotic cells at 4 uM incubated for 12 hrs by Annexin V-FITC/PI staining based analysis; type: functional
MDA-MB-231 [17] = experiment: Induction of apoptosis in human MDA-MB-231 cells assessed as apoptotic cells at 4 uM incubated for 24 hrs by Annexin V-FITC/PI staining based analysis; type: functional
MDA-MB-231 [18] = experiment: Induction of apoptosis in human MDA-MB-231 cells assessed as apoptotic cells at 4 uM incubated for 48 hrs by Annexin V-FITC/PI staining based analysis; type: functional
MDA-MB-231 [19] = experiment: Induction of apoptosis in human MDA-MB-231 cells assessed as apoptotic cells at 40 uM incubated for 12 hrs by Annexin V-FITC/PI staining based analysis; type: functional
MDA-MB-231 [20] = experiment: Induction of apoptosis in human MDA-MB-231 cells assessed as apoptotic cells at 40 uM incubated for 24 hrs by Annexin V-FITC/PI staining based analysis; type: functional
MDA-MB-231 [21] = experiment: Induction of apoptosis in human MDA-MB-231 cells assessed as apoptotic cells at 40 uM incubated for 48 hrs by Annexin V-FITC/PI staining based analysis; type: functional
MDA-MB-231 [22] = experiment: Induction of ROS generation in human MDA-MB-231 cells assessed as increase in intracellular ROS level at 40 uM incubated for 48 hrs by DCFH-DA staining based fluorescence microscopic analysis (Rvb=41.4%); type: functional
Cell membrane = experiment: Induction of mitochondrial membrane potential loss in human MDA-MB-231 cells assessed as increase in fluorescence intensity at 40 uM incubated for 48 hrs by TMRM dye based flow cytometry analysis (reference value: 97.5%)
MDA-MB-231 [23] = experiment: Inhibition of cell migration human MDA-MB-231 cells assessed as migration distance at 25 uM incubated for 24 hrs by wound healing assay (reference value: 642.72 micrometer); type: functional
MDA-MB-231 [24] = experiment: Inhibition of cell migration human MDA-MB-231 cells assessed as migration distance at 25 uM incubated for 48 hrs by wound healing assay (reference value: 642.72 micrometer); type: functional
MDA-MB-231 [25] = experiment: Inhibition of cell migration human MDA-MB-231 cells at 0.01 to 0.4 uM incubated for 20 hrs by DAPI staining based analysis; type: functional; conditions: dose 0.01-0.4 µM
HUVEC [26] = experiment: Antiangiogenesis activity in HUVEC cells at 62.5 nM incubated for 12 hrs by microscopic analysis; type: functional, cell-based; conditions: Homo sapiens
HUVEC [27] = experiment: Antiangiogenesis activity in HUVEC cells at 0.03 to 0.3 uM incubated for 12 hrs by microscopic analysis; type: functional, cell-based; conditions: Homo sapiens, dose 0.03-0.3 µM
MDA-MB-231 [28] = experiment: Antitumor activity against human MDA-MB-231 cells xenografted in nude mouse assessed as reduction in tumor growth at 10 to 20 mg/kg, ip measured for 3 days; type: functional, organism-based; conditions: dose 10-20 mg/kg, time 3.0 day
[29] = Toxicity in nude mouse xenografted with human MDA-MB-231 cells assessed as change in body weight at 10 to 20 mg/kg, ip measured for 3 days; type: organism-based; conditions: in vivo, 72 h, dose 10-20 mg/kg, time 3 day
MDA-MB-231 [30] = experiment: Antitumor activity against human MDA-MB-231 cells xenografted in nude mouse assessed as decrease in tumor size at 10 to 20 mg/kg, ip measured for 3 days; type: functional, organism-based; conditions: dose 10-20 mg/kg, time 3.0 day
MDA-MB-231 [31] = experiment: Antitumor activity against human MDA-MB-231 cells xenografted in nude mouse assessed as inhibition of proliferation of tumor cells at 10 mg/kg, ip measured for 3 days by H and E staining based analysis; type: functional, organism-based; conditions: time 3.0 day
MDA-MB-231 [32] = experiment: Antitumor activity against human MDA-MB-231 cells xenografted in nude mouse assessed as inhibition of spleen metastasis in tumor at 10 mg/kg, ip measured for 3 days; type: functional, organism-based; conditions: time 3.0 day
MDA-MB-231 [33] = experiment: Antitumor activity against human MDA-MB-231 cells xenografted in nude mouse assessed as inhibition of lung metastasis in tumor at 10 mg/kg, ip measured for 3 days; type: functional, organism-based; conditions: time 3.0 day
[34] = Hepatotoxicity in nude mouse at 10 mg/kg, ip measured for 3 days; type: toxicity, organism-based; conditions: in vivo, 72 h, time 3 day
MDA-MB-231 [35] = experiment: Antitumor activity against human MDA-MB-231 cells xenografted in nude mouse assessed as decrease in Ki67 expression at 10 mg/kg, ip measured for 3 days by immunohistochemistry analysis; type: functional, organism-based; conditions: time 3.0 day
MDA-MB-231 [36] = experiment: Antitumor activity against human MDA-MB-231 cells xenografted in nude mouse assessed as decrease in CD31 expression at 10 mg/kg, ip measured for 3 days by immunohistochemistry analysis; type: functional, organism-based; conditions: time 3.0 day

Sequence of Dual specificity protein kinase CLK2 (P49760 whole entry): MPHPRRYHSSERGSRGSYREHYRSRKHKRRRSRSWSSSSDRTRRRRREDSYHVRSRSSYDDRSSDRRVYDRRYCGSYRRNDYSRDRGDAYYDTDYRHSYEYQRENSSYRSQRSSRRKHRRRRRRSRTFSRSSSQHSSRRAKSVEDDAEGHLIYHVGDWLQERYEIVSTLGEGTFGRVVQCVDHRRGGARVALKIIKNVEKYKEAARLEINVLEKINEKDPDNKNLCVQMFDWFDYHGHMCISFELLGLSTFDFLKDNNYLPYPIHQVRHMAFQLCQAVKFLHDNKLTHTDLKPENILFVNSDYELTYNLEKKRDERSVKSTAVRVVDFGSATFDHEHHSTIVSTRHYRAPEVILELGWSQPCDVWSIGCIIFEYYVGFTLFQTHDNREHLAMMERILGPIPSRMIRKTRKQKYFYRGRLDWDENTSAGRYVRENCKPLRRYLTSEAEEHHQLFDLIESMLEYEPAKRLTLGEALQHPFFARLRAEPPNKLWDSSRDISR
Sequence of Cyclin-dependent kinase 7 (P50613 whole entry): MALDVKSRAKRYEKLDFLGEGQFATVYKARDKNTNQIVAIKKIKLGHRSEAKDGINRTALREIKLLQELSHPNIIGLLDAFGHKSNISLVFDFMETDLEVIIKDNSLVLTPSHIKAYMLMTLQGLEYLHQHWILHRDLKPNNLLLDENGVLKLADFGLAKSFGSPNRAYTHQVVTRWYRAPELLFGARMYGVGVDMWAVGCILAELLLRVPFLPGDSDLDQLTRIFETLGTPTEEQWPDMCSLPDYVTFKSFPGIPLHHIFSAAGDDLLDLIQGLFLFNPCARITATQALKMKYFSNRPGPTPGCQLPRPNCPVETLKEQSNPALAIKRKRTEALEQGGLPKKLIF
Sequence of Dual specificity protein kinase CLK4 (Q9HAZ1 whole entry): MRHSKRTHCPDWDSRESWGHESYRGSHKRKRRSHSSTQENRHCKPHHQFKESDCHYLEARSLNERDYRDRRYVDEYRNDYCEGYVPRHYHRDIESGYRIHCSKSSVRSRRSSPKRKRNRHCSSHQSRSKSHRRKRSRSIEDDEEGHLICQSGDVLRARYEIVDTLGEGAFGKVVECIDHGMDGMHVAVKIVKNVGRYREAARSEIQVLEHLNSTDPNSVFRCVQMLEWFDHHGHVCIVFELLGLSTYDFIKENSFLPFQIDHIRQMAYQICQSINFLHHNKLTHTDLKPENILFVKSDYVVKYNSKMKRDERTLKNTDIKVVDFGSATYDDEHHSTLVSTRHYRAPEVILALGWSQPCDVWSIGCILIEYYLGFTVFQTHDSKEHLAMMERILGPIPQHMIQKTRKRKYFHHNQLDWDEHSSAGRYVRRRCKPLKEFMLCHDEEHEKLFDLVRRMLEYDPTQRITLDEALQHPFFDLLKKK
Sequence of Dual specificity protein kinase CLK1 (P49759 whole entry, canonical isoform): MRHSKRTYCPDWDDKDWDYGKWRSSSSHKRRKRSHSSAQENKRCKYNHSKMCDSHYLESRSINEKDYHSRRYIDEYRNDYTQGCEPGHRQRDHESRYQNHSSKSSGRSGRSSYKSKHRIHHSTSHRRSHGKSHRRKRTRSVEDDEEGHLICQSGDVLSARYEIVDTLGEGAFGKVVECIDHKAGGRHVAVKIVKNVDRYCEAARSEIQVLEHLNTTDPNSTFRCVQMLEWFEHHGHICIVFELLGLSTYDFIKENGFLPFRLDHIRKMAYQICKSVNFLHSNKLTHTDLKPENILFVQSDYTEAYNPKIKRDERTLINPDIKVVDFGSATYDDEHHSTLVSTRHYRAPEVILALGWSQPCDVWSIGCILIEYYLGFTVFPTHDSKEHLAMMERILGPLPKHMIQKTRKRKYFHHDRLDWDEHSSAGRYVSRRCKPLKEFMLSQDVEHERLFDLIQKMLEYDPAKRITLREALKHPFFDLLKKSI
Sequence of Casein kinase I isoform epsilon (P49674 whole entry, canonical isoform): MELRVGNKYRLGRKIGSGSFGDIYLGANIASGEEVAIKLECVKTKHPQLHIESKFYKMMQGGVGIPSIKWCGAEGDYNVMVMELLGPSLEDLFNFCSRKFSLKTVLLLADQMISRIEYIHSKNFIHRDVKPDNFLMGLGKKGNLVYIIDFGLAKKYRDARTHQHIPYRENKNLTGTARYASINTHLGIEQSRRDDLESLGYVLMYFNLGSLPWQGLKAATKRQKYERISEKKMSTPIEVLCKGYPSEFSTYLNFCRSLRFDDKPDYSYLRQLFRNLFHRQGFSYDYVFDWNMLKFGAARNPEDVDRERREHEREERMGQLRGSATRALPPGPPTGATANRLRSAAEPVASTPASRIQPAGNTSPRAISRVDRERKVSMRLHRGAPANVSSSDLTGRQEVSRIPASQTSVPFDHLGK

Compound `OCCN1CCC(C2CCN(c3nc(NCc4cccc(F)c4F)c4ncn(C5CCCC5)c4n3)CC2)CC1` has an IC50 [1] of 0.39 µM, an IC50 [2] of 0.023 µM and an IC50 [3] of 0.073 µM. The IC50 [4] was 0.278 µM, the IC50 [5] was 0.038 µM and the IC50 [6] was 0.122 µM. For the same compound, the IC50 (K562) was 0.24 µM, the IC50 (HepG2) was 0.25 µM and the IC50 (HCT-116) was 2.79 µM. It also gave an IC50 (MCF7) of 2.67 µM, an IC50 (MGC-803) of 3.52 µM and an IC50 (A549) of 0.37 µM. For the same compound, the IC50 (NCI-H1299) was 4.05 µM, the IC50 (HT-29) was 3.37 µM and the IC50 (PC-3) was 3.92 µM. The IC50 (MDA-MB-231 [7]) was 3.55 µM, the IC50 (MDA-MB-468) was 3.69 µM and the IC50 at 48 h [8] was 6.18 µM. For the same compound, the IC50 at 48 h [9] was 4.28 µM, the Activity (MDA-MB-231 [10]) was roughly 100% and the Activity (MDA-MB-231 [11]) was roughly 100%. The Activity (MDA-MB-231 [12]) was “Active”, the Activity (MDA-MB-231 [13]) was “Active” and the Activity (MDA-MB-231 [14]) was “Active”. The Activity (MDA-MB-231 [15]) was “Active”, the Activity (MDA-MB-231 [16]) was 5.6% and the Activity (MDA-MB-231 [17]) was 13%. The Activity (MDA-MB-231 [18]) was 54.9%, the Activity (MDA-MB-231 [19]) was greater than 95% and the Activity (MDA-MB-231 [20]) was greater than 95%. It also gave an Activity (MDA-MB-231 [21]) greater than 95%, an Activity (MDA-MB-231 [22]) of 48.6% and an Activity (Cell membrane) of 80.9%. The Activity (MDA-MB-231 [23]) was 24.88 um, the Activity (MDA-MB-231 [24]) was 53.38 um and the inhibition (MDA-MB-231 [25]) was “Active”. The Activity (HUVEC [26]) was “Active”, the Activity (HUVEC [27]) was “Active” and the Activity (MDA-MB-231 [28]) was “Active”. The Activity [29] was “Non-Toxic”, the Activity (MDA-MB-231 [30]) was “Active” and the Activity (MDA-MB-231 [31]) was “Active”. The Activity (MDA-MB-231 [32]) was “Active”, the Activity (MDA-MB-231 [33]) was “Active” and the Activity [34] was “Non-Toxic”. For the same compound, the Activity (MDA-MB-231 [35]) was “Active” and the Activity (MDA-MB-231 [36]) was “Active”.
